Laboratory results reported in patent US4594425A, “Heterocyclic compounds as antiallergic agents” (American Home Products Corporation, priority 1984, dated 1986).

Assays:
[1] = system: LTD4 induced bronchoconstriction; assay: in vivo inhibition of bronchospasm induced in guinea pigs by exogenously administered LTD4; parameters: species or system guinea pig (male Hartley); details: 50 mg/kg intraduodenal, 10 minutes before LTD4, average of 6 experiments
Method: The assay of this Example measures the in vivo ability of the compounds of the invention to inhibit the bronchospasm induced in guinea pigs by the exogenously administered leukotrienes C4 and/or D4. This assay is essentially a measure of the SRS-A antagonist properties of the compounds tested.
This assay is carried out as follows:
Male Hartley strain guinea pigs (350-600 g) are anesthetized with pentobarbital sodium (50 mg/kg, i.p.). The jugular vein is cannulated for injection of drugs and the carotid artery for monitoring blood prerssure. The trachea is cannulated for artificial ventilation by a miniature Starling pump and for indirect measurement of respiratory volume changes as described infra. Additional pentobarbital sodium (15 mg/kg, i.v.) is administered to arrest spontaneous respiration. Submaximal bronchoconstrictor responses are established in control animals by varying the dose-levels of leukotriene. Intravenous dose-levels of LTC4 range from 1 to 2 μg/kg and for LTD4 the range is from 0.3 to 1 μg/kg. The aerosol bronchoprovocation dose for LTC4 is generated from 1.6 μM solution and for LTD4 from a 2.0 μM solution.
Test drugs are administered either intravenously, by aerosol or orally at 1 or 10 minutes before induction of bronchospasm by administration of either LTC4 or LTD4 at the predetermined dose-levels. Aerosols of soluble drugs or leukotrienes are produced in-line for 10 seconds only by actuation of an ultrasonic nebulizer (Monaghan). Aerosolized drug dosage is expressed in terms of solution concentration and by a fixed aerosol exposure time (approximately 10 seconds). Control animals receive saline in place of drug.
Respiratory volume changes are determined by a calibrated piston whose travel is recorded, via a linear transducer, on a Beckman Dynograph recorder. Maximal bronchoconstrictor volume is determined by clamping off the trachea at the end of the experiment. Overflow volumes at 3 and 5 minutes are obtained from the recorded charts.
The overflow volume at 3 and 5 minutes is expressed as a percentage of maximal bronchoconstriction. Combined group values are used from each of these time intervals to determine the inhibitory effect of drugs. [formula] Students t-test for unpaired data is used to determine statistical significance. Dose response curves are generated and ED50 doses are interpolated from the regression lines.
Results for compounds of the invention in this assay, using LTD4 for induction of bronchospasm, are given below: […]

[2] = system: synthesis of 5-HETE by rat glycogen-elicited polymorphonuclear leukocytes (lipoxygenase); assay: inhibition of 5-HETE synthesis by rat glycogen-elicited polymorphonuclear leukocytes; type: cell-based, rat (Wistar); details: Leukocyte; rat PMN, A23187 10 μM, [14C] arachidonic acid, 37° C.; read-out: 50% Inhibitory Concentration (IC50) 5-HETE
Method: (§1) This is especially true with respect to 5,12-diHETE, which is also denoted as LTB4 [see Ford-Hitchinson, J. Roy. Soc. Med., 74, 831 (1981)]. The assay of this Example measures the ability of the compounds of the invention to inhibit the synthesis of 5-HETE and LTB4 by rat glycogen-elicited polymorphonuclear leukocytes.
(§2) The assay is carried out as follows:
(§3) Peritoneal PMN are obtained from female Wistar rats (150-250 g) that received an i.p. injection of 6% glycogen (10 ml). After 24 hours, rats are killed by CO2 asphyxiation and peritoneal cells are harvested by peritoneal lavage using Ca^++ and Mg^++ free Hanks' balanced salt solution (HBSS). The peritoneal exudate is centrifuged at 400 g for 10 minutes. After centrifugation, the lavaged fluid is removed and the cell pellet is resuspended in HBSS containing Ca^++ and Mg^++ and 10 mM L-cysteine at a concentration of 2×10^7 cells/ml. To 1 ml portions of cell suspension, test drugs or vehicle are added and incubated at 37° C. for 10 minutes. Following this preincubation, the calcium ionophore (10 μM), A23187, is added together with 0.5 μCi [^14 C] arachidonic acid and further incubated for 10 minutes. The reaction is stopped by the addition of ice cold water (3 ml) and acidifying to pH 3.5. Lipoxygenase products are then extracted twice into diethyl ether. The pooled ether extracts are evaporated to dryness under nitrogen and the residue is redissolved in a small volume of methanol and spotted on aluminum backed pre-coated thin layer chromatographic plates. The samples are then co-chromatographed with authentic reference 5-HETE, 12-HETE and 5,12-diHETE in the solvent system-hexane:ether:acetic acid (50:50:3). After chromatography, the areas associated with 5-HETE and 5,12-diHETE standards are identified by autoradiography, cut out and quantitated by liquid scintillation.
(§4) Results are expressed as % inhibition of [^14 C]5-HETE and [^14 C]LTB4 (5,12-HETE) synthesis. [formula]
(§5) Testing compounds of the invention in this assay and using the antioxident 3-amino-1-[m-(trifluoromethyl)phenyl]-2-pyrazoline (BW755C) as a standard, the following results are obtained.

[3] = system: synthesis of LTB4 by rat glycogen-elicited polymorphonuclear leukocytes (lipoxygenase); assay: inhibition of LTB4 (5,12-diHETE) synthesis by rat glycogen-elicited polymorphonuclear leukocytes; type: cell-based, rat (Wistar); details: Leukocyte; rat PMN, A23187 10 μM, [14C] arachidonic acid, 37° C.; read-out: 50% Inhibitory Concentration (IC50) LTB4
Method: as §1, §2, §3, §4, §5

[4] = system: ovalbumin induced bronchospasm mediated by endogenous products of the lipoxygenase oxidation of arachidonic acid; assay: in vivo inhibition of ovalbumin induced bronchospasm in sensitized guinea pigs (endogenous mediators); parameters: species or system guinea pig (male Hartley); details: 50 mg/kg intraduodenal, 10 minutes before ovalbumin challenge, average of 6 experiments

| Compound | % Inhibition (Statistical Average), Overflow Volume at 3 min. [1] [%] | % Inhibition (Statistical Average), Overflow Volume at 5 min. [1] [%] | IC50 [2] [µM] | IC50 [3] [µM] | % Inhibition (Statistical Average), Overflow Volume at 3 min. [4] [%] | % Inhibition (Statistical Average), Overflow Volume at 5 min. [4] [%] |
| --- | --- | --- | --- | --- | --- | --- |
| COC(=O)CC(=O)Nc1cccc(OCc2nc3ccccc3n2C)c1 [Example 2d, 3-[[3-[(1-methyl-2-benzimidazolyl)methoxy]phenyl]amino]-3-oxopropanoic acid, methyl ester] | 62 | 59 | – | – | – | – |
| COC(=O)CCC(=O)N(O)c1cccc(OCc2nc3ccccc3s2)c1 [Example 6, 4-[[3-[(2-benzthiazolyl)methoxy]phenyl]hydroxylamino]-4-oxobutanoic acid, methyl ester] | 78 | 78 | 0.36 | 0.49 | – | – |
| COC(=O)CCC(=O)Nc1cccc(OCc2nc3ccccc3s2)c1 [Example 1, 4-[[3-[(2-benzthiazolyl)methoxy]phenyl]amino]-4-oxobutanoic acid, methyl ester] | 33 | 41 | 15.7 | 26 | 68 | 49 |
| COC(=O)CC(=O)Nc1cccc(OCc2nc3ccccc3s2)c1 [Example 2c, 3-[[3-[(2-benzthiazolyl)methoxy]phenyl]amino]-3-oxopropanoic acid, methyl ester] | 77 | 76 | – | – | – | – |
| COC(=O)CCC(=O)Nc1cccc(OCc2cc3ccccc3o2)c1 [Example 3, 4-[[3-[(2-benzofuranyl)methoxy]phenyl]amino]-4-oxobutanoic acid, methyl ester] | – | – | 17.9 | 27.3 | – | – |
| COC(=O)CCC(=O)Nc1cccc(OCc2nc3ccccc3n2C)c1 [Example 2b, 4-[[3-[(1-methyl-2-benzimidazolyl)methoxy]phenyl]amino]-4-oxobutanoic acid, methyl ester] | 82 | 82 | – | – | 54 | 49 |
| COC(=O)CCC(=O)Nc1cccc(OCc2nc3ccccc3o2)c1 [Example 2a, 4-[[3-[(2-benzoxazolyl)methoxy]phenyl]amino]-4-oxobutanoic acid, methyl ester] | – | – | 69.7 | 65.5 | – | – |
| NC1=NN(c2cccc(C(F)(F)F)c2)CC1 [BW755C, 3-amino-1-[m-(trifluoromethyl)phenyl]-2-pyrazoline, reference compound] | – | – | 43 | 30 | – | – |
